Patent US20240254111A1, “SUBSTITUTED BENZAMIDES AS HERBICIDES” (SYNGENTA CROP PROTECTION AG, priority 2021, published 2024)

Key:
Type in all cases: in vivo
[1] = system: Setaria faberi (SETFA); assay: Glasshouse pre-/post-emergence herbicide test, Table B2; conditions: 130 g/h, evaluated after 13 days
Description: (§1) Seeds of a variety of test species are sown in standard soil in pots Amaranthus retoflexus (AMARE), Setaria faberi (SETFA), Echinochloa crus-galli (ECHCG), Ipomoea hederacea (IPOHE)). After cultivation for one day (pre-emergence) or after 8 days cultivation (post-emergence) under controlled conditions in a glasshouse (at 24/16° C., day/night; 14 hours light; 65% humidity), the plants are sprayed with an aqueous spray solution derived from the formulation of the technical active ingredient in acetone/water (50:50) solution containing 0.5% Tween 20 (polyoxyethelyene sorbitan monolaurate, CAS RN 9005-64-5). Compounds are applied at 130 g/h unless otherwise indicated. The test plants are then grown in a glasshouse under controlled conditions in a glasshouse (at 24/16° C., day/night; 14 hours light; 65% humidity) and watered twice daily. After 13 days for pre and post-emergence, the test is evaluated for the percentage damage caused to the plant. The biological activities are shown in the following table on a five-point scale (5=80-100%; 4=60-79%; 3=40-59%; 2=20-39%; 1=0-19%).

[2] = system: Amaranthus retoflexus (AMARE); assay: as above; conditions: 130 g/h, evaluated after 13 days
Description: as §1

[3] = system: Ipomoea hederacea (IPOHE); assay: as above; conditions: 130 g/h, evaluated after 13 days
Description: as §1

[4] = system: Echinochloa crus-galli (ECHCG); assay: as above; conditions: 130 g/h, evaluated after 13 days
Description: as §1

[5] = system: Oryza sativa (ORYSA, Rice); assay: Glasshouse herbicide test, Table B1 (crop damage); conditions: POST Application, evaluated after 14 days
[6] = system: Panicum miliaceum (PANMVI); assay: Glasshouse herbicide test, Table B1; conditions: POST Application, evaluated after 14 days
[7] = system: Sinapis arvensis (SINAR); assay: Glasshouse herbicide test, Table B1; conditions: POST Application, evaluated after 14 days
[8] = system: Euphorbia heterophylla (EPHHIL); assay: Glasshouse herbicide test, Table B1; conditions: POST Application, evaluated after 14 days

Structure (SMILES) | SETFA percentage damage, five-point scale ([1]; POST Application) | SETFA percentage damage, five-point scale ([1]; PRE Application) | AMARE percentage damage, five-point scale ([2]; POST Application) | AMARE percentage damage, five-point scale ([2]; PRE Application) | IPOHE percentage damage, five-point scale ([3]; POST Application) | IPOHE percentage damage, five-point scale ([3]; PRE Application) | ECHCG percentage damage, five-point scale ([4]; POST Application) | ECHCG percentage damage, five-point scale ([4]; PRE Application) | ORYSA damage to plant (100=total damage; 0=no damage) ([5]; rate 30 g/ha) | ORYSA damage to plant (100=total damage; 0=no damage) ([5]; rate 130 g/ha) | ORYSA damage to plant (100=total damage; 0=no damage) ([5]; rate 250 g/ha) | PANMI damage to plant (100=total damage; 0=no damage) ([6]; rate 30 g/ha) | PANMI damage to plant (100=total damage; 0=no damage) ([6]; rate 130 g/ha) | PANMI damage to plant (100=total damage; 0=no damage) ([6]; rate 250 g/ha) | SINAR damage to plant (100=total damage; 0=no damage) ([7]; rate 30 g/ha) | SINAR damage to plant (100=total damage; 0=no damage) ([7]; rate 130 g/ha) | SINAR damage to plant (100=total damage; 0=no damage) ([7]; rate 250 g/ha) | EPHHL damage to plant (100=total damage; 0=no damage) ([8]; rate 30 g/ha) | EPHHL damage to plant (100=total damage; 0=no damage) ([8]; rate 130 g/ha) | EPHHL damage to plant (100=total damage; 0=no damage) ([8]; rate 250 g/ha)
Cc1c(C(=O)Nc2nnnn2C)ccc(OC(F)(F)F)c1NC(=O)C1CCOCC1 [Compound 1.010] | 5 (5=80-100%) | 2 (2=20-39%) | 4 (4=60-79%) | 5 (5=80-100%) | 4 (4=60-79%) | 2 (2=20-39%) | 5 (5=80-100%) | 3 (3=40-59%) |  |  |  |  |  |  |  |  |  |  |  | 
Cn1nnnc1NC(=O)c1ccc(OC(F)F)c(NC(=O)C2CCOCC2)c1Cl [Compound 1.002, N-[2-chloro-6-(difluoromethoxy)-3-[(1-methyltetrazol-5-yl)carbamoyl]phenyl]tetrahydropyran-4-carboxamide] | 5 (5=80-100%) | 5 (5=80-100%) | 5 (5=80-100%) | 5 (5=80-100%) | 4 (4=60-79%) | 5 (5=80-100%) | 5 (5=80-100%) | 5 (5=80-100%) | 0 | 10 | 20 | 90 | 100 | 100 | 90 | 100 | 100 | 90 | 100 | 100
CCn1nnnc1NC(=O)c1ccc(OC(F)F)c(NC(=O)C2CCOCC2)c1Cl [Compound 1.012] | 5 (5=80-100%) | 3 (3=40-59%) | 5 (5=80-100%) | 4 (4=60-79%) | 4 (4=60-79%) | 4 (4=60-79%) | 5 (5=80-100%) | 5 (5=80-100%) |  |  |  |  |  |  |  |  |  |  |  | 
Cn1nnnc1NC(=O)c1ccc(OC(F)(F)F)c(NC(=O)C2(C)CCOCC2)c1Cl [Compound 1.007] | 5 (5=80-100%) | 1 (1=0-19%) | 5 (5=80-100%) | 5 (5=80-100%) |  | 3 (3=40-59%) | 5 (5=80-100%) | 2 (2=20-39%) |  |  |  |  |  |  |  |  |  |  |  | 
Cn1nnnc1NC(=O)c1ccc(OC(F)(F)F)c(NC(=O)C2CCOCC2)c1Cl [Compound 1.001, N-[2-chloro-3-[(1-methyltetrazol-5-yl)carbamoyl]-6-(trifluoromethoxy)phenyl]-tetrahydropyran-4-carboxamide] | 5 (5=80-100%) | 5 (5=80-100%) | 5 (5=80-100%) | 5 (5=80-100%) | 5 (5=80-100%) | 4 (4=60-79%) | 5 (5=80-100%) | 5 (5=80-100%) | 0 | 0 | 0 | 90 | 100 | 100 | 100 | 100 | 100 | 100 | 100 | 100
Cn1nnnc1NC(=O)c1ccc(OC(F)F)c(NC(=O)C2(C)CCOCC2)c1Cl [Compound 1.009] | 2 (2=20-39%) | 1 (1=0-19%) | 5 (5=80-100%) | 5 (5=80-100%) | 4 (4=60-79%) | 2 (2=20-39%) | 4 (4=60-79%) | 1 (1=0-19%) |  |  |  |  |  |  |  |  |  |  |  | 
CCn1nnnc1NC(=O)c1ccc(OC(F)(F)F)c(NC(=O)C2CCOCC2)c1Cl [Compound 1.011] | 5 (5=80-100%) | 5 (5=80-100%) | 5 (5=80-100%) | 5 (5=80-100%) | 5 (5=80-100%) | 5 (5=80-100%) | 5 (5=80-100%) | 5 (5=80-100%) |  |  |  |  |  |  |  |  |  |  |  | 
